Entries after “also recorded” stand apart in the source; their conditions may differ. Read-outs that look alike come from different tables or passages of the source.
Columns and labels:
[1] = test system: MDA MB 468; assay: Proliferation assay MDA MB 468; type: cell-based; conditions: Homo sapiens, Breast, 72 hours
Procedure: (§1) Various cancer cell lines (listed in table 1) were plated at a density of 1000-5000 cells/well in 96-well plates in 90111 growth medium containing 10% FCS, 100 units/ml penicillin and 100 μg/ml streptomycin. Inhibitors were added a day later in 10 μl of 1% DMSO in DDW to obtain final concentrations of 0, 0.1, 0.3, 1, 3, and 10 μM. The final concentration of DMSO (0.1% DMSO) was kept constant in all samples. Medium with inhibitors was refreshed a day and two days later. Following exposure of the cells to the inhibitors for 72 hours at 37° C., the cells were fixed in 0.5% gluteraldehyde in medium for 10 min, washed three times with DDW, once with 0.1M sodium borate buffer pH 8.5 and stained with 1% methylene blue dissolved in 0.1M borate buffer solution for 60 min. Excess dye was washed out and cell-bound dye was eluted with 200 μl/well of 0.1 M HCl. The optical density value was read at 620 nm in ELISA plate reader. The data was analyzed in Microsoft Excel, using the vehicle control as 100% proliferation. The assays were performed in triplicates. The values in table 1 represent IC50 values derived from the dose-dependent growth curves obtained.
(§2) Compounds 6, 7, 8, and 9 were tested for their inhibitory potential in cell proliferation assay. In this assay cells were exposed to increasing concentrations of the molecules (at 0.1% DMSO in all wells) a day after seeding. Medium and inhibitors were refreshed every day, and following three days of treatment, cells were fixed and stained with methylene-Blue. IC50 values were determined from the curves of the optical density against compound concentration. The assay was performed in triplicates.

[2] = test system: IRS1; assay: IRS1 Ser-phosphorylation and IRS1 levels in A2780 cells; type: cell-based, human; conditions: ovarian cancer A2780 cells
Procedure: (§3) In addition, lysates were prepared from cells exposed to inhibitors at various concentrations for 24 hours in the presence or the absence of FCS without stimulation. Lysate preparation and western blot were the same as described above. Apoptosis was detected by immunoblotting with rabbit anti-PARP antibodies.

[3] = test system: Colo-205; assay: Proliferation assay Colo-205; type: cell-based; conditions: Homo sapiens, Colon, 72 hours
Procedure: as §1, §2

[4] = test system: MDA MB 435; assay: Proliferation assay MDA MB 435; type: cell-based; conditions: Homo sapiens, Breast, 72 hours
Procedure: as §1, §2

[5] = test system: AsPC1; assay: Proliferation assay AsPC1; type: cell-based; conditions: Homo sapiens, Pancreatic, 72 hours
Procedure: as §1, §2

[6] = test system: A2780; assay: Clonogenic assay A2780; type: cell-based; conditions: Homo sapiens, Ovarian
Procedure: (§4) Various cancer cells (listed in table 1) were seeded at a very low concentration (19 cells/well in 96-well plates or 63 cells/well in 24-well plates) in growth medium. A day later medium was replaced with growth medium containing various concentrations of inhibitors in a final concentration of 0.1% DMSO. The inhibitor-containing medium was refreshed three times a week. Following approximately two weeks cells were fixed by adding Gluteraldehide (0.5% final concentration) for 10 min, washed three time with DDW, once with borate buffer 0.1M and stained for 1 hour with 1% Methylene Blue in borate buffer 0.1M. Access stain was washed with water, and following drying colonies were counted. Alternatively, stain was extracted by 0.1N HCl for 1 hour and absorbance at 620 nm was measured by ELISA Reader. The assays were performed in triplicates. The values in table 1 represent IC50 values derived from the dose-dependent growth curves obtained.

[7] = test system: QG56; assay: Proliferation assay QG56; type: cell-based; conditions: Homo sapiens, QG-56, Lung, 72 hours
Procedure: as §1, §2

[8] = test system: QG56; assay: Clonogenic assay QG56; type: cell-based; conditions: Homo sapiens, QG-56, Lung
Procedure: as §4

[9] = test system: YURIF; assay: Proliferation assay YURIF; type: cell-based; conditions: Homo sapiens
Procedure: as §1, §2

[10] = test system: LIM 1215; assay: Proliferation assay LIM 1215; type: cell-based; conditions: LIM1215, Colon, 72 hours
Procedure: as §1, §2

[11] = test system: IRS1; assay: IRS1 Ser-phosphorylation in YUMAC cells; type: cell-based, human; conditions: metastatic melanoma YUMAC cells
Procedure: as §3

[12] = test system: PANC1; assay: Proliferation assay PANC1; type: cell-based; conditions: Homo sapiens, PANC-1, Pancreatic, 72 hours
Procedure: as §1, §2

[13] = test system: HT29; assay: Clonogenic assay HT29; type: cell-based; conditions: Homo sapiens, HT-29, Colon
Procedure: as §4

[14] = test system: DU145; assay: Proliferation assay DU145; type: cell-based; conditions: Homo sapiens, DU-145, Prostate, 72 hours
Procedure: as §1, §2

[15] = test system: MCF-7; assay: Proliferation assay MCF-7; type: cell-based; conditions: Homo sapiens, MCF7, Breast, 72 hours
Procedure: as §1, §2

[16] = test system: SKBR-3; assay: Proliferation assay SKBR-3; type: cell-based; conditions: Homo sapiens, SK-BR-3, Breast, 72 hours
Procedure: as §1, §2

[17] = test system: K562; assay: Proliferation assay K562; type: cell-based; conditions: Homo sapiens, Leukemia, 72 hours
Procedure: as §1, §2

[18] = test system: LIM 1899; assay: Proliferation assay LIM 1899; type: cell-based; conditions: Colon, 72 hours
Procedure: as §1, §2

[19] = test system: 1376; assay: Proliferation assay 1376; type: cell-based; conditions: Bladder, 72 hours
Procedure: as §1, §2

[20] = test system: B16; assay: Proliferation assay B16; type: cell-based; conditions: Mus musculus, Melanoma, 72 hours
Procedure: as §1, §2

[21] = test system: YUMAC; assay: Proliferation assay YUMAC; type: cell-based; conditions: Homo sapiens
Procedure: as §1, §2

[22] = test system: MO59K; assay: Proliferation assay MO59K; type: cell-based; conditions: Glioma, 72 hours
Procedure: as §1, §2

[23] = test system: T24P; assay: Proliferation assay T24P; type: cell-based; conditions: Bladder, 72 hours
Procedure: as §1, §2

[24] = test system: PC3; assay: Proliferation assay PC3; type: cell-based, human; conditions: Prostate
Procedure: as §1, §2

[25] = test system: PC-10; assay: Proliferation assay PC-10; type: cell-based; conditions: Homo sapiens, PC10, Lung, 72 hours
Procedure: as §1, §2

[26] = test system: HT29; assay: Proliferation assay HT29; type: cell-based; conditions: Homo sapiens, HT-29, Colon, 72 hours
Procedure: as §1, §2

[27] = test system: U266; assay: Proliferation assay U266; type: cell-based; conditions: Homo sapiens, U-266, Myeloma, 72 hours
Procedure: as §1, §2

[28] = Melanoma, YURIF, 72 hours, read-out: Proliferation assay IC50
[29] = Table 4, 72 hours incubation, read-out: Inhibition of human metastatic melanoma cells, YURIF IC50
[30] = Melanoma, YUMAC, 72 hours, read-out: Proliferation assay IC50
[31] = Table 4, 72 hours incubation, read-out: Inhibition of human metastatic melanoma cells, YUMAC IC50

Structure (SMILES)	IC50 [1] [nM]	IC50 [3] [nM]	IC50 [4] [nM]	IC50 [5] [nM]	IC50 [6] [nM]	IC50 [7] [nM]	IC50 [8] [nM]	IC50 [9, 28] [nM]	IC50 [9, 29] [nM]	IC50 [10] [nM]	IC50 [12] [nM]	IC50 [13] [nM]	IC50 [14] [nM]	IC50 [15] [nM]	IC50 [16] [nM]	IC50 [17] [nM]	IC50 [18] [nM]	IC50 [19] [nM]	IC50 [20] [nM]	IC50 [21, 30] [nM]	further results
Oc1cc(CNC(=S)/C=C/c2cc(O)c(O)c(Br)c2)cc(O)c1O [Compound 9]	7200	1700	1500	> 10000	300	2000	500	700	650	3300	> 10000	1600	1800	2500	6000	> 10000	2000	1400	1400	600	Cellular IRS1 levels [2]: a decrease in cellular IRS1 levels; IRS1 Ser-phosphorylation (shift up of IRS1 band) [2]: induced Ser-phosphorylation; IRS1 Ser-phosphorylation [11]: trigger IRS1-ser phosphorylation; also recorded: detected; IC50 [21, 31]: 600 nM; IC50 [22]: 1400 nM; IC50 [23]: 1400 nM; IC50 ([24]; Homo sapiens, PC-3, 72 h): 2700 nM; IC50 ([24]; 72 hours): 2000 nM; IC50 [25]: 3800 nM; IC50 [26]: 1500 nM; IC50 [27]: 900 nM
N#C/C(=C\c1cc(O)c(O)c(I)c1)C(=S)NCc1cc(O)c(O)c(O)c1 [Compound 8]	5800	2500	2100	9500	400	4400	1400	1600	1600	6400	> 10000	5600	6500	2800	9000	~10000	7100	800	1700	1200	Cellular IRS1 levels [2]: a decrease in cellular IRS1 levels; IRS1 Ser-phosphorylation (shift up of IRS1 band) [2]: induced Ser-phosphorylation; IRS1 Ser-phosphorylation [11]: trigger IRS1-ser phosphorylation; also recorded: detected; IC50 [21, 31]: 1200 nM; IC50 [22]: 900 nM; IC50 [23]: 900 nM; IC50 ([24]; Homo sapiens, PC-3, 72 h): 4600 nM; IC50 ([24]; 72 hours): 3600 nM; IC50 [25]: 5800 nM; IC50 [26]: 6100 nM; IC50 [27]: 800 nM
N#C/C(=C\c1cc(O)c(O)c(Br)c1)C(=S)NCc1cc(O)c(O)c(O)c1 [Compound 7]	> 10000	5400	2700	> 10000	400	5200	1700	1400	1400	6500	> 10000	2800	6600	4800	9900	~10000	7600	900	1900	1200	Cellular IRS1 levels [2]: a decrease in cellular IRS1 levels; IRS1 Ser-phosphorylation (shift up of IRS1 band) [2]: induced Ser-phosphorylation; IRS1 Ser-phosphorylation [11]: detected; IC50 [21, 31]: 1200 nM; IC50 [22]: 700 nM; IC50 [23]: 1200 nM; IC50 ([24]; Homo sapiens, PC-3, 72 h): 2800 nM; IC50 ([24]; 72 hours): 3900 nM; IC50 [25]: 5200 nM; IC50 [26]: 6800 nM; IC50 [27]: 800 nM
N#C/C(=C\c1cc(O)c(O)c(Br)c1)C(=S)NCc1cc(O)c(O)c(Br)c1 [Compound 6]	> 10000	> 10000	> 10000	> 10000	100	> 10000	2400	> 10000	> 10000	> 10000	> 10000	9500	> 10000	2100	> 10000	> 10000	> 10000	2500	7900	8500	IC50 [21, 31]: 8500 nM; IC50 [22]: 6800 nM; IC50 [23]: > 10000 nM; IC50 ([24]; Homo sapiens, PC-3, 72 h): > 10000 nM; IC50 [25]: > 10000 nM; IC50 [26]: > 10000 nM; IC50 [27]: 9800 nM

Source: patent publication US8058309B2, “Protein kinase modulators and therapeutic uses thereof” (Novotyr Therapeutics Ltd., priority 2006, dated 2011)
